# According to patent US9408908B2, “Combination adjuvant formulation” (University of Saskatchewan, priority 2008, dated 2016):
# Entries after “also recorded” stand apart in the source; their conditions may differ. No end group written: not given here.
# How the values were obtained:
# [1] = tested on: ΔF from BRSV; experiment: Immunization of mice with BRSV ΔF protein co-formulated with CpG ODN 1826, indolicidin and/or polyphosphazene; assay type: in vivo, C57BL/6 and Balb/c mice; settings: overall conclusion
# Protocol: Six- to eight-week-old female C57BL/6 mice (Charles River, Montreal, Quebec) were immunized twice subcutaneously at 3 week intervals with 100 μL of vaccine containing 0.5 μg ΔF from BRSV (a truncated form of the BRSV F protein engineered to lack the transmembrane domain (aa1-522 only), either alone, or co-formulated with CpG oligonucleotide 1826 (CpG ODN), indolicidin (indol), and/or polyphosphazene (PP). CpG ODN, indolicidin and polyphosphazene were given at doses of 10 μg, 20 μg, and 50 μg, respectively. Negative control animals were immunized with buffer (placebo). CpG ODN 1826 ([…]) (SEQ ID NO:8) was provided by Merial (Lyon, France), and contained a phosphorothioate-modified backbone. […]
# Statistical analysis was carried out using GraphPad Prism version 5.00 for Windows (GraphPad Software, San Diego, Calif.). Differences between groups were determined using a Mann-Whitney U test.
# CpG ODN 1826, indolicidin, and polyphosphazene were examined for their ability to enhance antigen-specific immune responses when administered with the ΔF protein, either alone, or co-formulated with CpG, indolicidin, and/or PP. […] Mice were immunized twice subcutaneously, and serum total anti-ΔF IgG titers were measured after each immunization by ELISA. […]
# [2] = tested on: human PBMC; experiment: Chemokine induction by host defense peptides in human PBMC (ELISA); assay type: cell-based
# Protocol: (§1) These peptides were tested for induction of chemokines and cytokines in human PBMCs. Human PBMCs stimulated with 20 and 100 μg/ml of host defense peptides were assessed for various cytokines and chemokines at the 24 hour time-point by ELISA (eBiosciences). […] Subsequently, selected host defense peptides were examined for protective activity in vivo. Briefly, BALB/c mice were administered peptides (8 mg/kg) by i.p. administration 4 h prior to infection. Mice were infected with 8.4×10^7 S. aureus in 5% mucin by i.p. administration. Bacterial counts in the peritoneal lavage were determined in 24 h after the initiation of infection.
# [3] = tested on: human cord blood mononuclear cells; experiment: Peptide activity in human cord blood mononuclear cells; assay type: cell-based
# Protocol: as §1
# [4] = tested on: S. aureus; experiment: Protection against S. aureus infection in mice; assay type: in vivo, BALB/c mice; settings: 8 mg/kg i.p. 4 h prior to infection; bacterial counts in peritoneal lavage at 24 h
# Protocol: as §1
# [5] = tested on: human PBMC; experiment: MCP-1 induction by triple adjuvant formulations (peptide, CpG 10103, PCPP) in human PBMC; assay type: cell-based; settings: 24 hours, peptide 40 μg/ml, CpG 20 μg/ml, no PCPP, average of 4 biological replicates
# Protocol: The effect of PCPP addition on chemokine induction by peptide-CpG 10103 complexes was assessed by the induction of MCP-1 in human PBMCs. Briefly, peptide-CpG complexes were formed as previously described and following incubation PCPP, with or without MgCl2 (pH 7.4), was added to the peptide-CpG complexes at various concentrations and incubated for 30 min at 37° C. Following incubation, human PBMCs were stimulated with the various formulations for 24 hours and levels of MCP-1 were measured by ELISA.
# [6] = tested on: human PBMCs and human red blood cells; experiment: Cytotoxicity: LDH release in human PBMCs and haemolysis of human red blood cells
# [7] = Effect of indolicidin dose on adjuvant activity with CpG ODN 1826 (unpublished results); assay type: in vivo; settings: 20 μg of peptide co-administered with CpG ODN 1826
# Description: Adjuvant doses were selected based on previous reports of adjuvanticity of the individual components.
# [8] = Cytokine production by indolicidin with CpG ODN (unpublished results)
# Description: The combination of indolicidin, however, along with CpG ODN and polyphosphazene enhanced ΔF-specific humoral and cellular immune responses, and generated a Th1 response. […] The combination of all three adjuvants was required for optimal enhancement of the immune response, as well as to shift the resulting anti-ΔF immune response from Th2 to Th1. However the mechanisms of this immune enhancement are unclear. Without being bound by a particular theory, the enhanced immunogenicity and Th1-biasing effect of the combination with all three adjuvants with ΔF could be as a result of the stabilization and prolonged effect of CpG ODN and/or ΔF, and an increased uptake of CpG ODN and ΔF into antigen-presenting cells.
# [9] = tested on: human PBMCs; experiment: MCP-1 induction by nucleic acid-peptide formulations in human PBMCs; assay type: cell-based; settings: human PBMCs 24 hours; coupled with peptide 1002 or 1018; four biological replicates
# Protocol: Chemokine induction by nucleic acid-peptide formulations Direct complex formation between the various nucleic acids and synthetic host defense peptides was verified prior to human PBMC stimulations. For determination of the immunostimulatory activities of various nucleic acids in complex with host defense peptides in vitro, the following experiment was conducted. Various combinations of CpG ODN 10103, non-CpG ODN 5′[…]3′ (SEQ ID NO:13), poly(I:C) and the synthetic host defense peptides 1002 and 1018 were examined for chemokine induction. Briefly, nucleic acids and peptide were co-incubated for 30 min at 37° C. prior to cell stimulations. Human PBMCs were stimulated with the various formulations for 24 hours and levels of MCP-1 were measured by ELISA. Optimal ratios 2:1, 1:1 and 1:2 nucleic acid:host defense peptide (μg/ml:μg/ml) were identified between concentration thresholds of 40 μg/ml and 10 μg/ml. The results were from four biological replicates.
# [10] = human PBMC, peptide concentration 20 μg/ml
# [11] = human PBMC, peptide concentration 20 μg/ml, 24 hour, ELISA
# [12] = human PBMC, peptide concentration 100 μg/ml
# [13] = human PBMC, peptide concentration 100 μg/ml, 24 hour, ELISA
# [14] = Table 2, JK peptides, human PBMCs, peptide concentration 20 μg/ml
# [15] = Table 2, JK peptides, human PBMCs, peptide concentration 100 μg/ml
# [16] = Table 3, indolicidin derivatives, human PBMCs, peptide concentration 20 (unit not given)
# [17] = Table 3, indolicidin derivatives, human PBMCs, peptide concentration 100 (unit not given)
substance,measurement,setting,value
CpG ODN 1826,type and enhancement of ΔF-specific immune response,[1],shift towards a Th1 or balanced immune response
HH18: host defense peptide IWVIWRR (SEQ ID NO:21) (HH18),Chemokine Induction Gro-α,[2]; [10],865 pg/mL
same,Chemokine Induction MCP-3,[2]; [10],32 pg/mL
same,Chemokine Induction MCP-1,[2]; [11],1111 pg/mL
same,Chemokine Induction Gro-α,[2]; [12],2964 pg/mL
same,Chemokine Induction MCP-3,[2]; [12],431 pg/mL
same,Chemokine Induction MCP-1,[2]; [13],9608 pg/mL
same,induction of chemokines and cytokines in human PBMCs (ranking in panel),"[2]; panel of 20 HH-class peptides, 20 and 100 μg/ml, 24 hour",most active peptides
same,activity in human cord blood mononuclear cells,[3],further confirmed
JK1: peptide VFLRRIRVIVIR (SEQ ID NO:2) (JK1),Chemokine Induction Gro-α,[2]; [14],377 pg/mL
same,Chemokine Induction MCP-1,[2]; [14],663 pg/mL
same,Chemokine Induction Gro-α,[2]; [15],105 pg/mL
same,Chemokine Induction MCP-1,[2]; [15],1226 pg/mL
JK3: peptide VQLRAIRVRVIR (SEQ ID NO:4) (JK3),Chemokine Induction Gro-α,[2]; [14],430 pg/mL
same,Chemokine Induction MCP-1,[2]; [14],873 pg/mL
same,Chemokine Induction Gro-α,[2]; [15],320 pg/mL
same,Chemokine Induction MCP-1,[2]; [15],747 pg/mL
JK4: peptide VQLRRIRVWVIR (SEQ ID NO:5) (JK4),Chemokine Induction Gro-α,[2]; [14],245 pg/mL
same,Chemokine Induction MCP-1,[2]; [14],655 pg/mL
same,Chemokine Induction Gro-α,[2]; [15],80 pg/mL
same,Chemokine Induction MCP-1,[2]; [15],557 pg/mL
JK5: peptide VQWRAIRVRVIR (SEQ ID NO:6) (JK5),Chemokine Induction Gro-α,[2]; [14],317 pg/mL
same,Chemokine Induction MCP-1,[2]; [14],673 pg/mL
same,Chemokine Induction Gro-α,[2]; [15],123 pg/mL
same,Chemokine Induction MCP-1,[2]; [15],529 pg/mL
JK6: peptide VQWRRIRVWVIR (SEQ ID NO:7) (JK6),Chemokine Induction Gro-α,[2]; [14],254 pg/mL
same,Chemokine Induction MCP-1,[2]; [14],721 pg/mL
same,Chemokine Induction Gro-α,[2]; [15],68 pg/mL
same,Chemokine Induction MCP-1,[2]; [15],671 pg/mL
Nisin Z [reference compound],Chemokine Induction Gro-α,[2]; [10],62 pg/mL
same,Chemokine Induction MCP-1,[2]; [11],434 pg/mL
same,Chemokine Induction Gro-α,[2]; [12],5811 pg/mL
same,Chemokine Induction MCP-1,[2]; [13],7329 pg/mL
same,protection in animal challenges against S. aureus,[4],offered protection
same,MCP-1 Induction,[5],47 pg/mL
VQRWLIVWRIRK [Peptide 1002],"cytotoxicity (LDH release in human PBMCs, haemolysis of human red blood cells)",[6],minimal cytotoxicity
VRLIVAVRIWRR-NH2 [Peptide 1018],"cytotoxicity (LDH release in human PBMCs, haemolysis of human red blood cells)",[6],minimal cytotoxicity
indolicidin [reference compound],Chemokine Induction Gro-α,[2]; [16],84 pg/mL
same,Chemokine Induction MCP-1,[2]; [16],245 pg/mL
same,Chemokine Induction Gro-α,[2]; [17],846 pg/mL
same,Chemokine Induction MCP-1,[2]; [17],3120 pg/mL
same,type and enhancement of ΔF-specific immune response,[1],sustain the type-2 immune response; also recorded: did not appear to be an effective adjuvant
same,adjuvant activity and class switching to IgG2a by dose,[7],enhanced antigen-specific immune responses and effected class switching to IgG2a better than when the peptide was administered at a 10-fold higher dose
same,production of Th1 cytokines IL-12 and IFN-γ and chemotactic factor MCP-1,[8],acts synergistically with CpG ODN
polyriboinosinic acid-polyribocytidylic acid [poly(I:C)],induction of MCP-1 versus individual components,[9],synergistic induction of MCP-1
